Reference: patent US20160106102A1, “KNOWN AND NEW HETEROCYCLIC COMPOUNDS AS PEST CONTROL AGENTS” (BAYER CROPSCIENCE AKTIENGESELLSCHAFT, priority 2013, published 2016)
Read-outs that look alike come from different tables or passages of the source.

Experiments:
[1] = tested on: Myzus persicae; assay: Myzus persicae - spray test; type: in vivo; details: application rate of 500 g/ha, after 6 days, sprayed Chinese cabbage leaf discs infested by all stages, 100% = all aphids killed
Description: Myzus persicae—spray test Solvent: 78 parts by weight of acetone • • 1.5 parts by weight of dimethylformamide Emulsifier: 0.5 part by weight of alkylaryl polyglycol ether To produce an appropriate active ingredient formulation, 1 part by weight of active ingredient is mixed with the specified amounts of solvent and emulsifier, and the concentrate is diluted to the desired concentration with emulsifier-containing water. Discs of Chinese cabbage leaves (Brassica pekinensis) infested by all stages of the green peach aphid (Myzus persicae) are sprayed with an active ingredient formulation of the desired concentration. After 6 days, the efficacy in % is determined. 100% means that all the aphids have been killed; 0% means that no aphids have been killed.

[2] = tested on: Myzus persicae; assay: Myzus persicae - sachet test; type: in vivo; details: 100% = all animals killed
In short: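 Active ingredient dissolved with 2% N-methylpyrrolidone and 2% diacetone alcohol, diluted in water, then pipetted into nutrient medium. Plate sealed and paired with a plate carrying green peach aphids. Kill in % scored after the set time (100% = all dead, 0% = none dead).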

[3] = log P determination by LC-MS in the acidic range; type: physicochemical; details: for log P (acid): LC-MS in the acidic range
From the text: The LC-MS determination in the acidic range is effected at pH 2.7 using 0.1% aqueous formic acid and acetonitrile (contains 0.1% formic acid) as eluents, linear gradient from 10% acetonitrile to 95% acetonitrile. Alternatively, the determination is effected in the acidic range at pH 2.3 using 0.1% aqueous phosphoric acid and acetonitrile as eluents; linear gradient from 10% acetonitrile to 95% acetonitrile.

[4] = application rate of 6 ppm in nutrient medium
[5] = application rate of 30 ppm in nutrient medium

Compound | log P (acid) [3] | chromatographic logP ([3]; pH 2.7, LC-MS in the acidic range, read-out: log P (acid)) | chromatographic logP ([3]; pH 2.7, values given in the synthesis examples and NMR lists, read-out: HPLC-MS: log P) | efficacy in % [1] | efficacy (kill in %) [2, 4] | efficacy (kill in %) [2, 5] | pest or weed control at 500 g/ha ([1]; Myzus persicae, foliar, 144 h, read-out: efficacy in %) | pest or weed control at 6 ppm ([2]; Myzus persicae, application rate of 6 ppm in nutrient medium, read-out: efficacy (kill in %)) | pest or weed control at 30 ppm ([2]; Myzus persicae, application rate of 30 ppm in nutrient medium, read-out: efficacy (kill in %))
O=C(Nc1ccn(Cc2ncccn2)n1)c1cccnc1 [Compound I-1-9] | 0.42 | – | – | 100% | 100% | 100% | – | – | –
Cc1cc(C)nc(CNC(=O)n2nc(NC(=O)c3cccnc3)cc2C)n1 [Compound I-1-338] | 1.43 | – | – | 90% | 100% | 100% | – | – | –
Cc1cc(NC(=O)c2cccnc2)nn1C(=O)NCC1CCCCO1 (stereo not shown) [Compound I-1-313] | 1.78 | – | – | 90% | 100% | 100% | – | – | –
Cc1cc(NC(=O)c2cccnc2)nn1Cc1nnc(C(C)(C)C)o1 [Compound I-1-281] | 1.44 | – | – | 90% | 80% | 100% | – | – | –
Cc1cc(NC(=O)c2cccnc2)nn1C(=O)NCC1COCCO1 (stereo not shown) [Compound I-1-310] | 1.2 | – | – | 100% | 100% | 100% | – | – | –
O=C(Nc1cc(C(F)(F)F)n(Cc2ncccn2)n1)c1cccnc1 [Compound I-1-196] | 1.46 | – | – | 90% | 100% | 100% | – | – | –
Cc1cc(N(CC#N)C(=O)c2cccnc2)nn1Cc1ncccn1 [Compound I-1-262] | 0.84 | – | – | 90% | 100% | 100% | – | – | –
Cc1cc(NC(=O)c2cccnc2)nn1C(C)C [Compound I-1-49] | 1.4 | – | – | 80% | 100% | 100% | – | – | –
Cc1cc(NC(=S)c2cccnc2)nn1Cc1ncccn1 [Compound I-1-344] | 1.24 | – | – | 100% | 100% | 100% | – | – | –
Cc1cc(NC(=O)c2cccnc2)nn1Cc1nn(C)c(=O)n1C [Compound I-1-153] | 0.62 | – | – | 100% | 100% | 100% | – | – | –
CC[S+]([O-])CCn1nc(NC(=O)c2cccnc2)cc1C (stereo not shown) [Compound I-1-190] | 0.46 | – | – | 100% | 100% | 100% | – | – | –
Cc1cc(NC(=O)c2cccnc2)nn1Cc1noc(C(C)(C)C)n1 [Compound I-1-285] | 1.71 | – | – | 90% | 100% | 100% | – | – | –
Cc1cc(NC(=O)c2cccnc2)nn1Cn1ccc(C(F)(F)F)n1 [Compound I-1-228] | 1.86 | – | – | 90% | 100% | 100% | – | – | –
Cc1cc(NC(=O)c2cccnc2)nn1C(=O)NCC[S+](C)[O-] (stereo not shown) [Compound I-1-308] | 0.84 | – | – | 90% | 100% | 100% | – | – | –
O=C(Nc1ccn(-c2ncccc2F)n1)c1cccnc1 [Compound I-1-30] | 1.15 | – | – | 90% | 100% | 100% | – | – | –
Cn1nc(NC(=O)c2cccnc2)c2cccnc21 [Compound I-1-39] | 0.78 | – | – | 90% | 100% | 100% | – | – | –
Cc1cc(NC(=O)c2cccnc2)nn1C(=O)NCc1cccnc1 [Compound I-1-330] | 0.64 | – | – | 90% | 100% | 100% | – | – | –
Cc1cc(NC(=O)c2cccnc2)nn1C(=O)c1cccnc1 [Compound I-1-28] | 1.57 | – | – | 90% | 100% | 100% | – | – | –

Further lines, with some results ahead:

log P (acid) [3] | chromatographic logP ([3]; pH 2.7, LC-MS in the acidic range, read-out: log P (acid)) | chromatographic logP ([3]; pH 2.7, values given in the synthesis examples and NMR lists, read-out: HPLC-MS: log P) | Compound | efficacy in % [1] | efficacy (kill in %) [2, 4] | efficacy (kill in %) [2, 5] | pest or weed control at 500 g/ha ([1]; Myzus persicae, foliar, 144 h, read-out: efficacy in %) | pest or weed control at 6 ppm ([2]; Myzus persicae, application rate of 6 ppm in nutrient medium, read-out: efficacy (kill in %)) | pest or weed control at 30 ppm ([2]; Myzus persicae, application rate of 30 ppm in nutrient medium, read-out: efficacy (kill in %))
0.83 | – | – | Cc1nnc(Cn2nc(NC(=O)c3cccnc3)cc2C)s1 [Compound I-1-296] | 90% | 100% | 100% | – | – | –
0.79 | – | – | COCCn1nc(NC(=O)c2cccnc2)cc1C [Compound I-1-173] | 100% | 80% | 80% | – | – | –
0.97 | – | – | CNC(=O)n1nc(NC(=O)c2cccnc2)cc1C [Compound I-1-292] | 100% | 100% | 100% | – | – | –
0.19 | – | – | Cc1cc(NC(=O)c2cccnc2)nn1C[S+](C)[O-] (stereo not shown) [Compound I-1-243] | 100% | 100% | 100% | – | – | –
1.79 | – | – | Cc1cc(NC(=O)c2cccnc2)nn1-c1ccc(F)cc1 [Compound I-1-203] | 90% | 80% | 100% | – | – | –
0.65 | – | – | Cc1cc(NC(=O)c2cccnc2)nn1Cn1ccnn1 [Compound I-1-223] | 100% | 100% | 100% | – | – | –
1.09 | – | – | Cc1cc(NC(=O)c2cccnc2)nn1Cc1cc(C(=O)N(C)C)no1 [Compound I-1-298] | 90% | 100% | 100% | – | – | –
1.06 | – | – | Cc1cc(NC(=O)c2cccnc2)nn1CC1CCCO1 (stereo not shown) [Compound I-1-176] | 100% | 80% | 80% | – | – | –
0.74 | – | – | Cc1cc(NC(=O)c2cccnc2)nn1Cn1c(C)nn(C)c1=O [Compound I-1-148] | 90% | 100% | 100% | – | – | –
1.88 | – | – | CCOC(CNC(=O)n1nc(NC(=O)c2cccnc2)cc1C)OCC [Compound I-1-170] | 90% | 100% | 100% | – | – | –
0.29 | – | – | CNC(=O)Cn1nc(NC(=O)c2cccnc2)cc1C [Compound I-1-124] | 90% | 100% | 100% | – | – | –
1.56 | – | – | CCC(=O)n1nc(NC(=O)c2cccnc2)cc1C [Compound I-1-129] | 90% | 100% | 100% | – | – | –
1.44 | – | – | COCC(C)NC(=O)n1nc(NC(=O)c2cccnc2)cc1C (stereo not shown) [Compound I-1-166] | 100% | 100% | 100% | – | – | –
– | 1.11 | 1.11 | Cc1cc(NC(=O)c2cncc(F)c2)nn1Cc1ncccn1 [Compound I-1-7, 5-Fluoro-N-[5-methyl-1-(pyrimidin-2-ylmethyl)-1H-pyrazol-3-yl]nicotinamide] | – | – | – | 90% | 100% | 100%
1.22 | – | – | COCCNC(=O)n1nc(NC(=O)c2cccnc2)cc1C [Compound I-1-163] | 100% | 100% | 100% | – | – | –
